Results from ChEMBL document CHEMBL4130341 (Medchemcomm, 2016).
Activity calls are given as the source filed them. The rule behind the calls is not given here.

Experiments:
[1] = molecular target: T1, Nuclear factor erythroid 2-related factor 2 (Mus musculus) (UniProt Q60795); experiment: Induction of Nrf2 nuclear translocation in mouse Hepa1c1c7 cells at 20 uM after 6 hrs by DAPI/Hoechst 33258 staining-based immunofluorescence method; assay type: cell-based
T1 sequence (whole entry): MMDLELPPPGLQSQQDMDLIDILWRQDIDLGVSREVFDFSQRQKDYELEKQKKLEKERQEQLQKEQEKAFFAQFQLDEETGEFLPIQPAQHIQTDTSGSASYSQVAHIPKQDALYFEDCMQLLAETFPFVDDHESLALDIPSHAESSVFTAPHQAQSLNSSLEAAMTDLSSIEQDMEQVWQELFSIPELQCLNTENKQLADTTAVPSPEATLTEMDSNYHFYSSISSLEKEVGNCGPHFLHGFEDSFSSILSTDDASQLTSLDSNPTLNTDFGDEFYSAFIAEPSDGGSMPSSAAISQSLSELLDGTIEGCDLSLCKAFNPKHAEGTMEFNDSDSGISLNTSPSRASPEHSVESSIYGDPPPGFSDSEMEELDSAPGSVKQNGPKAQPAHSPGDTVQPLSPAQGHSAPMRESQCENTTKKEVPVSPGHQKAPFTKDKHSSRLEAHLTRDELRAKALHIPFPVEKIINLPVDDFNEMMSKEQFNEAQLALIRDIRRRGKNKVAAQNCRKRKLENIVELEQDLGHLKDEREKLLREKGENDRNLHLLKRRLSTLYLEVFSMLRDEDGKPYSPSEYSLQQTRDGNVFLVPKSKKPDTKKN

[2] = molecular target: T1, Nuclear factor erythroid 2-related factor 2 (Mus musculus); experiment: Activation of Nrf2 in wild type mouse Hepa1c1c7 cells cytosolic fraction assessed as induction of quinone reductase activity using 2,6-DCIP as substrate in presence of NADH incubated for 48 hrs measured for 1 min
[3] = molecular target: T1, Nuclear factor erythroid 2-related factor 2 (Mus musculus); experiment: Activation of Nrf2 in mutant mouse BpRc1 cells cytosolic fraction assessed as induction of quinone reductase activity using 2,6-DCIP as substrate in presence of NADH incubated for 48 hrs measured for 1 min; assay type: cell-based
[4] = Ratio of IC50 for cytotoxicity against wild type mouse Hepa1c1c7 cells to CD for activation of Nrf2 in wild type mouse Hepa1c1c7 cells cytosolic fraction
[5] = molecular target: T1, Nuclear factor erythroid 2-related factor 2 (Mus musculus); experiment: Ratio of CD for activation of Nrf2 in mutant mouse BpRc1 cells cytosolic fraction to CD for activation of Nrf2 in wild type mouse Hepa1c1c7 cells cytosolic fraction; assay type: cell-based
[6] = Cytotoxicity against mutant mouse BpRc1 cells after 48 hrs by SRB assay; assay type: functional, cell-based; conditions: BPrc1, 48 h
[7] = Ratio of IC50 for cytotoxicity against mutant mouse BpRc1 cells to CD for activation of Nrf2 in mutant mouse BpRc1 cells cytosolic fraction
[8] = Cytotoxicity against wild type mouse Hepa1c1c7 cells after 48 hrs by SRB assay; assay type: functional, cell-based; conditions: Hepa-1c1c7, 48 h
[9] = molecular target: T1, Nuclear factor erythroid 2-related factor 2 (Mus musculus); experiment: Ratio of activation of wild type Nrf2 in mouse Hepa1c1c7 cells cytosolic fraction to activation of Nrf2 in mutant mouse BpRc1 cells cytosolic fraction; assay type: cell-based
HT-29 [10] = experiment: Cytotoxicity against human HT-29 cells assessed as cell survival at 100 uM after 24 hrs by SRB assay relative to control; assay type: functional; conditions: HT-29, 24 h, read-out: Survival
[11] = molecular target: T1, Nuclear factor erythroid 2-related factor 2 (Mus musculus); experiment: Activation of Nrf2 in mutant mouse BpRc1 cells cytosolic fraction assessed as induction of quinone reductase activity at 10 uM using 2,6-DCIP as substrate in presence of NADH incubated for 48 hrs measured for 1 min relative to control; assay type: cell-based
HK-2 = experiment: Genotoxicity in human HK2 cells assessed as induction of DNA strand breakage at 20 uM after 6 hrs by DAPI staining based alkaline comet assay; assay type: toxicity, cell-based; conditions: hk-2, 6 h
Salmonella typhimurium = experiment: Mutagenicity in Salmonella typhimurium TA98 in presence of mouse liver S9 fraction by Ames test; assay type: toxicity, organism-based; conditions: salmonella enterica subsp. enterica serovar typhimurium
MCF7 [12] = experiment: Cytotoxicity against human MCF7 cells assessed as cell survival at 100 uM after 24 hrs by SRB assay relative to control; assay type: functional; conditions: for viability at 100 µM: MCF7, 24 h, read-out: Survival
TK-10 = experiment: Cytotoxicity against human TK10 cells assessed as cell survival after 24 hrs by SRB assay; assay type: functional, cell-based; conditions: TK-10, 24 h
[13] = molecular target: T1, Nuclear factor erythroid 2-related factor 2 (Mus musculus); experiment: Activation of Nrf2 in wild type mouse Hepa1c1c7 cells cytosolic fraction assessed as induction of quinone reductase activity at 10 uM using 2,6-DCIP as substrate in presence of NADH incubated for 48 hrs measured for 1 min relative to control
Rattus norvegicus [14] = experiment: In vivo induction of CYP450 activity in Wistar rat colon microsomal fraction at 15 mg/kg, po qd administered over 2 weeks by measuring EROD activity using 7-ethoxyresorufine as substrate measured for 5 mins; assay type: ADME, organism-based; conditions: microsomes
Rattus norvegicus [15] = experiment: Toxicity in Wistar rat assessed as effect on behavior at 15 mg/kg, po qd administered over 2 weeks; assay type: organism-based; conditions: in vivo, 336 h
Rattus norvegicus [16] = experiment: Toxicity in Wistar rat assessed as effect on body weight at 15 mg/kg, po qd administered over 2 weeks; assay type: organism-based; conditions: in vivo, 336 h
Rattus norvegicus [17] = experiment: In vivo induction of CYP450 activity in Wistar rat liver microsomal fraction at 15 mg/kg, po qd administered over 2 weeks by measuring EROD activity using 7-ethoxyresorufine as substrate measured for 5 mins; assay type: ADME, organism-based; conditions: microsomes
Rattus norvegicus [18] = experiment: In vivo induction of CYP450 activity in Wistar rat mammary gland microsomal fraction at 15 mg/kg, po qd administered over 2 weeks by measuring EROD activity using 7-ethoxyresorufine as substrate measured for 5 mins; assay type: ADME, organism-based; conditions: microsomes
HT-29 [19] = experiment: Cytotoxicity against human HT-29 cells assessed as cell survival after 24 hrs by SRB assay; assay type: functional, cell-based; conditions: HT-29, 24 h
MCF7 [20] = experiment: Cytotoxicity against human MCF7 cells assessed as cell survival after 24 hrs by SRB assay; assay type: functional, cell-based; conditions: MCF7, 24 h

| Compound | Ratio [9] | fold change (FC) [11] | Activity (HK-2) | Activity (Salmonella typhimurium) | fold change (FC) [13] | Activity (MCF7 [12]) | also measured |
| --- | --- | --- | --- | --- | --- | --- | --- |
| CC(C)(C)c1cc(O)ccc1O [E319] |  |  |  |  |  |  | Activity [1]: Active; CD [2]: 1 µM; CD [3]: 6 µM; Ratio [4]: 147; Ratio [5]: 6; IC50 [6]: 60 µM; Ratio [7]: 10; IC50 [8]: 147 µM |
| O=C(/C=C/c1ccccc1)c1cccc2ccccc12 | 0.9 | 1.13 | Non-Toxic | Non-Toxic | 0.98 |  | viability at 100 µM (HT-29 [10]): < 50%; viability at 100 µM (MCF7 [12]): < 50%; IC50 (TK-10): 20 µM |
| O=C(/C=C/c1cccc2ccccc12)c1ccccc1O | 1.5 | 2.21 | Non-Toxic | Non-Toxic | 3.21 |  | Activity [1]: Active; Activity (Rattus norvegicus [14]): Non-Toxic; CD [2]: 11 µM; Activity (Rattus norvegicus [15]): Non-Toxic; CD [3]: 10 µM; viability at 100 µM (HT-29 [10]): < 50%; Ratio [4]: 3; Ratio [5]: 0.91; Activity (Rattus norvegicus [16]): Non-Toxic; IC50 [6]: 45 µM; Ratio [7]: 4.5; Activity (Rattus norvegicus [17]): Toxic; IC50 [8]: 33 µM; viability at 100 µM (MCF7 [12]): < 50%; Activity (Rattus norvegicus [18]): Non-Toxic; IC50 (TK-10): 14 µM |
| O=C(/C=C/c1ccccn1)c1ccccc1O |  |  | Non-Toxic |  |  |  |  |
| O=C(/C=C/c1ccccc1)c1ccc2ccccc2c1O |  | 0.57 |  |  | 3.04 |  |  |
| O=C(CC(CC(=O)c1ccccc1)c1cccc2ccccc12)c1ccccc1 | 0.4 | 2.38 |  | Non-Toxic | 0.83 | Active |  |
| O=C(/C=C/c1cncc(Br)c1)c1ccccc1O | 1.5 | 1.03 |  | Non-Toxic | 1.51 | Active | IC50 (TK-10): 20 µM |
| O=C(/C=C/c1cccc2ccccc12)c1c(O)ccc2ccccc12 | 1.6 | 0.82 | Non-Toxic | Non-Toxic | 1.29 |  | viability at 100 µM (HT-29 [10]): < 50%; viability at 100 µM (MCF7 [12]): < 50% |
| O=C(/C=C/c1ccc2ccccc2c1)c1c(O)ccc2ccccc12 | 2.2 | 0.79 | Non-Toxic | Non-Toxic | 1.76 | Active |  |
| O=C(/C=C/c1ccc(Br)cc1)c1ccccc1O |  |  | Non-Toxic |  |  |  |  |
| O=C(/C=C/c1ccccc1)c1ccc2ccccc2c1 | 0.8 | 1.21 | Non-Toxic | Non-Toxic | 0.96 |  | viability at 100 µM (HT-29 [10]): < 50%; viability at 100 µM (MCF7 [12]): < 50%; IC50 (HT-29 [19]): 32 µM; IC50 (MCF7 [20]): 28 µM |
| O=C(/C=C/c1cccc(Br)n1)c1ccccc1O | 1 | 1.18 | Non-Toxic | Non-Toxic | 1.23 |  | viability at 100 µM (HT-29 [10]): < 50%; viability at 100 µM (MCF7 [12]): < 50%; IC50 (TK-10): 18 µM |
| O=C(CC(O)c1ccccc1)c1c(O)ccc2ccccc12 (stereo unspecified) | 2.9 | 1.14 |  |  | 3.31 | Active |  |
| O=C(/C=C/c1ccnc2ccccc12)c1ccccc1O | 4 | 1.34 |  | Non-Toxic | 5.42 |  |  |
| O=C(/C=C/c1ccnc2ccccc12)c1ccc2ccccc2c1 | 1 | 1.25 |  | Non-Toxic | 1.28 | Active |  |
| O=C(/C=C/c1ccnc2ccccc12)c1ccc2ccccc2c1O |  | 0.85 |  |  | 1.48 | Active |  |
| O=C(/C=C/c1cccc2ccccc12)c1ccccc1 | 1 | 0.92 | Non-Toxic | Non-Toxic | 0.88 | Active |  |
| O=c1cc(-c2ccc(Br)cc2)oc2ccccc12 | 2.99 | 1.49 |  |  | 4.45 |  | CD [2]: 0.79 µM; CD [3]: 80 µM; Ratio [4]: 107; Ratio [5]: 101; IC50 [6]: 150 µM; Ratio [7]: 1.9; IC50 [8]: 85 µM |
| O=C(/C=C/c1ccc2ccccc2c1)c1ccccc1O | 2.1 | 1.39 | Non-Toxic | Non-Toxic | 2.96 |  | CD [2]: 0.5 µM; CD [3]: 20 µM; viability at 100 µM (HT-29 [10]): < 50%; Ratio [4]: 170; Ratio [5]: 40; IC50 [6]: 85 µM; Ratio [7]: 4.2; IC50 [8]: 85 µM; viability at 100 µM (MCF7 [12]): < 50% |
| O=C(/C=C/c1ccc2ccccc2c1)c1ccccc1 | 0.7 | 1.41 | Non-Toxic | Non-Toxic | 0.95 | Active |  |
| O=C(CC(O)c1ccccc1)c1ccc2ccccc2c1 (stereo unspecified) | 2.9 | 1.74 | Non-Toxic | Non-Toxic | 5.04 | Active |  |
| O=C(/C=C/c1ccnc2ccccc12)c1cccc2ccccc12 | 0.8 | 1.83 |  | Non-Toxic | 1.43 | Active |  |
| O=C(/C=C/c1ccc2ccccc2c1)c1ccc2ccccc2c1O | 1.5 | 0.97 |  | Non-Toxic | 1.44 | Active |  |
| O=C(/C=C/c1cncc(Br)c1)c1ccc2ccccc2c1O | 2 | 1.13 | Non-Toxic | Non-Toxic | 2.3 | Active |  |
